Assay results taken from patent publication US11040117B2, “Treatment of a subtype of ASD” (Stalicla S.A., priority 2017, dated 2021).

system: ASD phenotype 1 lymphoblastoid cell lines; test: Biolog Phenotype Mammalian MicroArrays (PM-M): NADH production, colorimetric redox dye; format: cell-based, human; conditions: cells exposed to the substance; AUC and endpoint absorbance
Description: From all subjects, blood samples were collected and lymphoblastoid cell lines generated. Briefly, tubes containing anticoagulant citrate dextrose (ACD) were used to collect blood samples via venipuncture, in order to ensure that the blood cells remained metabolically active. The tubes were kept at room temperature and processed within 24 hours.
Cell lines were obtained by immortalization of lymphocytes from blood samples using Epstein-Barr virus.
Energy production of cells was measured using commercially available Phenotype Mammalian MicroArrays (PM-Ms, Biolog, Hayward, Calif., USA).
The compound in each well was designed to be used by the cells, either as the sole energy source or as the metabolic effector influencing the utilization of an energy source (α-D-glucose) added in the cell suspension. […] Before plating, cell viability and number were assessed utilizing a BioRad cell counter and a trypan blue dye. The concentration of live cells required for plating was 4×10^5 cells/mL, corresponding to 20,000 cells per well in a volume of 50 μL. […] Cells were incubated for 48 h at 37° C. in 5% CO2, using the modified Biolog IF-M1 medium.
The Biolog IF-M1 medium was modified for plates PM-M1 to M4 by adding the following to 100 mL of Biolog IF-M1: 1.1 mL of 100× penicillin/streptomycin solution, 0.16 mL of 200 mM glutamine (final concentration 0.3 mM), and 5.3 mL of Fetal Bovine Serum (FBS, final concentration 5%). For plates PM-M5 to M8, 5.5 mM α-D-glucose will be added in place of FBS.
During the 48-hour incubation, the only energy source the cells had was the chemical in the well. After this first incubation, Biolog Redox Dye Mix MB was added (10 μL/well) and the plates were incubated under the same conditions for an additional 24 hours. As the cells metabolized the energy source, tetrazolium dye in the media was reduced, producing a purple color according to the amount of NADH generated.
For the last 24 hours of the experiment, the plates were incubated in the Omnilog system, which collects optical density readings every 15 minutes, generating 96 data-points for each well. The system also elaborated the kinetic curve for the metabolic reaction in each well and extrapolated parameters such as slope, highest point, endpoint, area under the curve (AUC), and lag.
At the end of the 24-hour incubation, the plates were analyzed utilizing a microplate reader with readings at 590 and 750 nm. The first value (A590) indicated the highest absorbance peak of the redox dye and the second value (A750) gave a measure of the background noise. The relative absorbance (A590-750) was calculated per well.

| Substance | production of NADH in ASD phenotype 1 cells compared to TDs and non-phenotype 1 cells |
| --- | --- |
| FGF-1(aFGF): growth factor that selectively targets the PI3K-Akt-mTOR by binding the receptor tyrosine kinase | significantly reduced production of NADH |
| IL-6: Th1 cytokine | significantly lower levels of NADH |
| hGH(Somatotropin): growth factor that selectively targets the PI3K-Akt-mTOR by binding the receptor tyrosine kinase | significantly reduced production of NADH |
| PDGF-AB: platelet-derived growth factor AB | no significant differences |
| IL-1beta: Th1 cytokine | significantly lower levels of NADH |
| IGF-I: insulin-like growth factor 1; targets less specifically the PI3K-AKT-mTOR pathway in LCLs | no significant differences |
